Laboratory results reported in patent publication US5798392A, “Sulfonyl fluorides for the treatment of Alzheimer's disease” (The Board of Regents of the University of Texas System, priority 1996, dated 1998).
“Also recorded” adds a separate entry of the source.

Experiments:
[1] = tested on: acetylcholinesterase; details: cited from earlier work
[2] = target: T1, erythrocyte acetylcholinesterase (Homo sapiens, UniProt P22303); experiment: Erythrocyte acetylcholinesterase inhibition in blood after oral dosing of humans (Ellman assay); format: in vivo
T1 sequence (P22303 32-574): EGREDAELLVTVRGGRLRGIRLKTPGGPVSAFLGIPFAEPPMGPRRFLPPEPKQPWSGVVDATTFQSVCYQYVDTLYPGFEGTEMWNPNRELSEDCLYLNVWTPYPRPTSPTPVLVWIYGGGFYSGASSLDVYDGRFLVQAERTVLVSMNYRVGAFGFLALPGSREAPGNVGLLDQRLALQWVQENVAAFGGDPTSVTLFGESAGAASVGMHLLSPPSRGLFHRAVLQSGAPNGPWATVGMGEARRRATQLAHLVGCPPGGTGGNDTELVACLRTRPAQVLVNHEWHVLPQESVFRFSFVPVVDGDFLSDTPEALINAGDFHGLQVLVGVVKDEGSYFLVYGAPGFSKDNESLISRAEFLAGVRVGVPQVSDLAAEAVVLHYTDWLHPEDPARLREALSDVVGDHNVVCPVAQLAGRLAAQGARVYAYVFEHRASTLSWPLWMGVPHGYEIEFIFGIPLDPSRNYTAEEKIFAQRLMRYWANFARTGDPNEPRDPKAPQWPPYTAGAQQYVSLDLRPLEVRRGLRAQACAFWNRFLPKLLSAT

[3] = target: plasma butyrylcholinesterase (Homo sapiens, UniProt P06276); experiment: Plasma butyrylcholinesterase inhibition in blood after oral dosing (Experiment I); format: in vivo; details: oral doses
plasma butyrylcholinesterase, sequence (P06276 29-602): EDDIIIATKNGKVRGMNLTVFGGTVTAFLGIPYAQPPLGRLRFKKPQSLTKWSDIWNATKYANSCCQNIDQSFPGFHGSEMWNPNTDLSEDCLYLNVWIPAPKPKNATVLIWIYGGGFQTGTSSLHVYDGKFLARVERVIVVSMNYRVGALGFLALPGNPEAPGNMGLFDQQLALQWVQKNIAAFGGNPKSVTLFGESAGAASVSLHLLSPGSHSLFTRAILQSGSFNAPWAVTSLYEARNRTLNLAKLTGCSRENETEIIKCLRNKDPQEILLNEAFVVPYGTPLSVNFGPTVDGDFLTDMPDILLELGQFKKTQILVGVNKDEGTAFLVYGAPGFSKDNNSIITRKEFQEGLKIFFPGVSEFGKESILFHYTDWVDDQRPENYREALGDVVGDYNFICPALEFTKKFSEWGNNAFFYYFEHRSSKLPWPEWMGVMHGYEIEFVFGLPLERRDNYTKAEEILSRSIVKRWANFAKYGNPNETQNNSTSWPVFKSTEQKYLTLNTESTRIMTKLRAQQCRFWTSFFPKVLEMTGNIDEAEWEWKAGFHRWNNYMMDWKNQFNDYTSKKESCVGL

[4] = tested on: patients suffering from SDAT; experiment: ADAS-COG cognitive performance, Experiment III double blind crossover; format: in vivo, human
[5] = tested on: patients suffering from SDAT; experiment: Mini Mental State Exam, Experiment III double blind crossover; format: in vivo, human; details: p<0.01 one-tailed, paired t-test and Wilcoxon
[6] = tested on: patients suffering from SDAT; experiment: Clinical Interview Based Impression of Change (CIBIC), Experiment III; format: in vivo, human; details: end of 16 week protocol; baseline 4.0; p<0.01 t-test one-tailed; spread SD
[7] = tested on: patients suffering from SDAT; experiment: Global Deterioration Scale, Experiment III; format: in vivo, human
[8] = tested on: brain acetylcholinesterase; experiment: Brain acetylcholinesterase inhibition in rodents and monkeys; set-up: species or system rodent and monkey; details: monkey, in vivo
[9] = tested on: rats and monkeys; experiment: Pharmacological activity after intramuscular injection in oil vehicle; format: in vivo; details: i.m., sterile oil vehicle
[10] = tested on: acetylcholinesterase; experiment: Reaction with acetylcholinesterase in brain membranes in vitro; format: biochemical; details: solubilized in brain membranes, after removal from aqueous environment
[11] = tested on: animal memory; details: minimum of 50% inhibition; without toxicity; cited from earlier work
[12] = tested on: brain acetylcholinesterase; details: rodent and monkey brain; accumulated, small doses over a long period of time; up to; cited from earlier work
[13] = Chemical stability and solubility
[14] = Concentration in peripheral blood; details: in vivo
[15] = Experiment III, safety in patients suffering from SDAT
[16] = Experiment II, Phase I tolerability in 10 normal subjects
[17] = Experiment I, side effects and clinical blood analyses in one normal volunteer; details: 0.016-0.22 mg/kg oral
[18] = target: T1, erythrocyte acetylcholinesterase; experiment: Erythrocyte acetylcholinesterase substrate kinetics; format: biochemical
[19] = tested on: SDAT patients; details: cited from earlier work
[20] = Prior tacrine treatment of two patients
[21] = acetyl-β-methylthiocholine substrate, pH 7.4, 25° C

With `COP(=O)(OC)C(O)C(Cl)(Cl)Cl` (centres unmarked) [metrifonate, reference compound] as the molecule, how does the “selectivity for acetylcholinesterase in comparison to butyrylcholinesterase” value (“selectivity for acetylcholinesterase” below) [1] read?
Its value is “do not show this high degree of selectivity”.

With `CS(=O)(=O)F` [methanesulfonyl fluoride] as the molecule, how does the inhibition at 0.14 mg/kg ([2]; 0.14 mg/kg oral three times per week, Experiment III, spread SEM in %) read?
The inhibition at 0.14 mg/kg was 85.3%.

What about the inhibition at 0.18 mg/kg ([2]; 0.18 mg/kg oral three times per week, Experiment III, spread SEM in %) of the same molecule?
Its inhibition at 0.18 mg/kg is 89.5%.

And the “estimated minimum therapeutic dose” value ([2]; 18% inhibition of remaining active enzyme per dose, Experiment I)?
Its value is 0.11 mg/kg.

What about the “refined estimation of the (minimum) therapeutic dose” value ([2]; 18% inhibition of remaining enzyme, three times per week, Experiments I and II) of the same molecule?
The value was 0.14 mg/kg.

What about the dose-response correlation r ([2]; Experiment II, FIG. 6, least squares linear regression) of the same molecule?
The dose-response correlation r was “+0.8956”.

What about the dose/response relationship ([2]; Experiment II, FIG. 6, oral) of the same molecule?
Its dose/response relationship is “orderly and consistent dose/response relationship”.

What about the “dose required to produce 18% inhibition of acetylcholinesterase remaining active” value ([2]; Experiment II, oral) of the same molecule?
Its value is 0.143 mg/kg.

What about the “selectivity for erythrocyte acetylcholinesterase” value ([2]; FIG. 4, Experiment I oral doses, versus plasma butyrylcholinesterase) of the same molecule?
Its value is “strongly selective for erythrocyte acetylcholinesterase”.

What about the “recovery kinetics of erythrocyte acetylcholinesterase” value ([2]; FIG. 5, 80 days after treatment ceased) of the same molecule?
The value was “follows pseudo-first order kinetics; also recorded: strictly linear plot of LOG10 [%INH] against time”.

What about the “half-life for recovery of erythrocyte acetylcholinesterase” value ([2]; FIG. 5, Experiment I, 80 days after last dose) of the same molecule?
The value was 43 days.

What about the “activity by oral administration (erythrocyte acetylcholinesterase inhibition)” value ([2]; oral, Experiment I, FIG. 1) of the same molecule?
Its value is “active by oral administration”.

What about the “dose-response of erythrocyte acetylcholinesterase inhibition” value ([2]; oral, Experiment I, FIG. 1, one observation at each dose) of the same molecule?
Its value is “orderly dose-response curve”.

What about the “inhibition of erythrocyte acetylcholinesterase” value ([2]; patients treated up to 8 weeks) of the same molecule?
The value was 85-90%.

And the “correlation coefficient r, LOG10 [% inhibition] against time” value ([2]; recovery of erythrocyte acetylcholinesterase, FIG. 5, least squares linear regression)?
The value was -0.9254.

What about the “inhibition of plasma butyrylcholinesterase” value [3] of the same molecule?
The value was “virtually no inhibition of plasma butyrylcholinesterase”.

What about the “percent improvement on the ADAS-COG” value ([4]; 6 point reduction from 30 errors) of the same molecule?
Its value is 20%.

And the “mean improvement on the ADAS-COG” value ([4]; Experiment III, mean of 30 errors at beginning)?
The value was 6 points.

What about the “cognitive performance (reduction in errors on the ADAS-COG)” value ([4]; FIG. 7, during methanesulfonyl fluoride treatment) of the same molecule?
Its value is “substantial improvement of cognitive performance”.

What about the “duration of improvement after treatment” value ([4]; after/through 8 weeks of placebo treatment) of the same molecule?
The value was “still clearly present after 8 weeks of placebo treatment; also recorded: maintained through 8 weeks of placebo”.

And the “efficacy compared with tacrine in enhancing cognitive functions in SDAT” value ([4]; in vivo)?
The value was “significantly greater efficacy than tacrine”.

What about the “improvement on ADAS-COG maintained throughout 8 additional weeks of placebo” value ([4]; methanesulfonyl fluoride first, then placebo) of the same molecule?
Its value is “about 6 points”.

And the “ADAS-COG change in 8 weeks compared to placebo” value ([4]; p<0.01 one-tailed, paired t-test and Wilcoxon)?
The value was “significant improvement compared to the placebo”.

And the “correlation of ADAS-COG improvement with baseline ADAS-COG errors” value ([4]; p<0.05, N=15)?
The value was “+0.6”.

And the “Mini-Mental State score change in 8 weeks compared to placebo” value [5]?
The value was “significant improvement compared to the placebo”.

What about the “mean CIBIC” value [6] of the same molecule?
Its value is 2.98 (SD=1.13).

What about the “mean improvement in Global Deterioration Score” value ([7]; 16 weeks versus baseline, p<0.01 t-test one-tailed, spread SEM) of the same molecule?
Its value is 1.3 (SEM=0.33).

What about the “mean Global Deterioration Score at the end of the protocol” value ([7]; end of 16 week protocol, baseline 4.4 (SEM=0.21)) of the same molecule?
Its value is 3.1.

And the “inhibition in brain versus peripheral tissues” value [8]?
Its value is “much more inhibition in brain than peripheral tissues”.

What about the “pharmacological activity if injected intramuscularly” value [9] of the same molecule?
The value was “pharmacologically active”.

And the “continued reaction against acetylcholinesterase” value [10]?
Its value is “continues to react against acetylcholinesterase even after it is removed from the aqueous environment of the membranes in vitro”.

What about the “mechanism and duration of acetylcholinesterase inhibition” value [1] of the same molecule?
Its value is “long-acting irreversible inhibitor of acetylcholinesterase”.

What about the “selectivity for acetylcholinesterase” value [1] of the same molecule?
The value was “high selectivity”.

What about the “enhancement of animal memory” value [11] of the same molecule?
The value was “strong methanesulfonyl fluoride-induced enhancement of animal memory without toxicity”.

And the “inhibition of brain acetylcholinesterase” value [12]?
The value was 80-90%.

What about the solubility in lipids ([13]; lipids) of the same molecule?
Its solubility in lipids is “highly soluble in lipids”.

What about the “chemical stability in water solutions” value ([13]; water solutions) of the same molecule?
The value was “would degrade in water solutions”.

What about the “concentration in the peripheral blood” value [14] of the same molecule?
Its value is “drops within hours”.

And the adverse events ([15]; 0.14 mg/kg, first 7 patients)?
Its adverse events is “no adverse events”.

What about the “clinical blood profiles, especially transaminases” value ([15]; Experiment III) of the same molecule?
The value was “no changes in clinical blood profiles”.

What about the “nausea, vomiting, diarrhea, or other cholinergic side effects” value ([15]; Experiment III) of the same molecule?
The value was “no patients suffered”.

And the “signs of toxicity at the doses used” value ([15]; Experiment III)?
The value was “no signs of methanesulfonyl fluoride toxicity”.

And the “adverse events related to drug treatment” value ([15]; Experiment III, 0.14-0.18 mg/kg)?
Its value is “no adverse events”.

And the “patients leaving the protocol because of a drug-related adverse event” value ([15]; Experiment III, 21 enrolled, 15 completed)?
The value was “No patients”.

What about the “peripheral cholinergic or other toxic effects” value ([15]; doses sufficient for treatment of dementia) of the same molecule?
Its value is “not accompanied by peripheral cholinergic or other toxic effects”.

What about the hematocrit changes ([15]; patients, up to 8 weeks, 85-90% inhibition of erythrocyte acetylcholinesterase) of the same molecule?
The hematocrit changes was “no changes in hematocrit”.

And the “adverse events in patients with known tacrine sensitivity” value ([15]; two patients with prior tacrine adverse effects)?
The value was “Neither of these patients with known sensitivities experienced adverse events”.

What about the tolerability ([16]; 0.03-0.18 mg/kg oral, Experiment II) of the same molecule?
Its tolerability is “All doses used were tolerated well”.

And the “safety at range of doses expected to produce a therapeutic effect” value ([16]; Experiments I and II)?
The value was “safe at the range of doses expected to produce a therapeutic effect”.

What about the oral absorption ([16]; oral, Experiment II) of the same molecule?
The oral absorption was “consistently absorbed after oral administration”.

What about the “changes in the clinical blood analyses” value [17] of the same molecule?
The value was “no changes of any type in the clinical blood analyses”.

What about the “cholinergic effects (e.g., diarrhea, vomiting, nausea)” value [17] of the same molecule?
The value was “no cholinergic effects”.

What does the source list for `CC(=O)SC(C)C[N+](C)(C)C` (stereo not drawn) [acetyl-β-methylthiocholine]?
percent of Vmax produced by substrate concentration ([18]; 1.0 mM substrate, approximately 10 times Km, without substrate inhibition): about 91%; Acetylcholinesterase Vmax [18, 21]: 9.2552 (SEM=0.6386) ×10-6 moles/gram of erythrocytes/min; erythrocyte acetylcholinesterase Vmax [18, 21]: 9.2552 (SEM=0.6386) ×10^-6 moles/gm/min

With `Nc1c2c(nc3ccccc13)CCCC2` [tacrine] as the molecule, how does the “mean improvement on the ADAS-COG” value ([19]; high dose tacrine, patients who could tolerate) read?
The value was 2 points.

And the “patients who could tolerate” value ([19]; high dose tacrine)?
Its value is 40%.

And the “patients who failed to complete the protocol because of drug-related adverse events” value ([19]; high dose tacrine)?
The value was “about 60%”.

And the “adverse events related to treatment” value ([19]; in vivo)?
The value was “cholinergic side effects (nausea, vomiting, diarrhea, etc.) and liver toxicity”.

And the prior adverse effects ([20]; one patient each)?
Its prior adverse effects is “liver toxicity; also recorded: vomiting”.

What about the “highest tolerated dose (limited by vomiting)” value ([20]; one patient, an ineffective dose) of the same molecule?
Its value is 60 mg/day.

With `CNC(=O)Oc1ccc2c(c1)[C@]1(C)CCN(C)[C@@H]1N2C` [physostigmine, reference compound] as the molecule, how does the “selectivity for acetylcholinesterase” value [1] read?
Its value is “do not show this high degree of selectivity”.
